Each structure is given as a SMILES string. ± gives the expanded uncertainty stated by the source.

Consider six molecules from the NIST ThermoML archive (doi:10.1021/je100253m).

For the series the following is noted: Ring tensiometer.

Regarding `CCCC[N+]1(C)CCCC1.O=S(=O)([N-]S(=O)(=O)C(F)(F)F)C(F)(F)F`, the surface tension liquid-gas reads like this: (293.15 K) 34.93 ± 0.51 mN/m; (303.15 K) 34.35 ± 0.51 mN/m; (313.15 K) 33.65 ± 0.5 mN/m; (323.15 K) 33.17 ± 0.49 mN/m; (333.15 K) 32.61 ± 0.48 mN/m; (343.15 K) 31.96 ± 0.48 mN/m.

Regarding `CCCCCCCCCCCCCC[P+](CCCCCC)(CCCCCC)CCCCCC.O=S(=O)([N-]S(=O)(=O)C(F)(F)F)C(F)(F)F`, the surface tension liquid-gas is on record as 30.75 ± 0.46 mN/m (293.15 K); 30.25 ± 0.46 mN/m (303.15 K); 29.52 ± 0.45 mN/m (313.15 K); 28.87 ± 0.44 mN/m (323.15 K); 28.21 ± 0.43 mN/m (333.15 K); 27.59 ± 0.42 mN/m (343.15 K).

On to `CCn1cc[n+](CC)c1.O=S(=O)([N-]S(=O)(=O)C(F)(F)F)C(F)(F)F` [1,3-diethylimidazolium bis[(trifluoromethyl)sulfonyl]imide], for which the surface tension liquid-gas (293.15 K) is 35.76 ± 0.52 mN/m; the surface tension liquid-gas (303.15 K) is 35.37 ± 0.52 mN/m; the surface tension liquid-gas (313.15 K) was 34.94 ± 0.51 mN/m; the surface tension liquid-gas (323.15 K) is 34.56 ± 0.51 mN/m; the surface tension liquid-gas (333.15 K) amounted to 34.15 ± 0.5 mN/m; the surface tension liquid-gas (343.15 K) amounted to 33.7 ± 0.5 mN/m.

As to `CCC[N+]1(C)CCCC1.O=S(=O)([N-]S(=O)(=O)C(F)(F)F)C(F)(F)F`, the surface tension liquid-gas was 32.54 ± 0.48 mN/m (293.15 K); 31.95 ± 0.48 mN/m (303.15 K); 31.5 ± 0.47 mN/m (313.15 K); 31 ± 0.46 mN/m (323.15 K); 30.47 ± 0.46 mN/m (333.15 K); 29.97 ± 0.45 mN/m (343.15 K).

Consider `CCCCn1cc[n+](C)c1C.O=S(=O)([N-]S(=O)(=O)C(F)(F)F)C(F)(F)F`, for which the surface tension liquid-gas is, setting by setting: (293.15 K) 37.4 ± 0.55 mN/m; (303.15 K) 35.54 ± 0.52 mN/m; (313.15 K) 33.83 ± 0.5 mN/m; (323.15 K) 32.2 ± 0.48 mN/m; (333.15 K) 30.49 ± 0.46 mN/m; (343.15 K) 28.74 ± 0.44 mN/m.

In the case of `CCC[n+]1cccc(C)c1.O=S(=O)([N-]S(=O)(=O)C(F)(F)F)C(F)(F)F`, the surface tension liquid-gas is, setting by setting: (293.15 K) 36 ± 0.53 mN/m; (303.15 K) 35.53 ± 0.52 mN/m; (313.15 K) 35.1 ± 0.52 mN/m; (323.15 K) 34.53 ± 0.51 mN/m; (333.15 K) 34.05 ± 0.5 mN/m; (343.15 K) 33.55 ± 0.5 mN/m.
